Measured values published in patent publication US11360096B2, “Complex BRET technique for measuring biological interactions” (DUKE UNIVERSITY, priority 2019, dated 2022).

What was measured:
[1] = test system: Gαi:β-arrestin-2 complexes; test: Split luciferase Gαi-LgBiT:β-arrestin-2-smBiT complex formation in cells overexpressing V2R; assay type: cell-based, human
Procedure: (§1) HEK293T cells seeded in 6-well plates were co-transfected with 500 ng of smBiT tagged β-arrestin-2, and either 250 ng of LgBiT tagged receptor or 2000 ng of untagged receptor and varying concentrations of LgBiT Gα protein expression vector (most experiments were conducted between 50-200 ng of Gα plasmid) or 2000 ng of mKO tagged β-arrestin-2 and 500 ng of smBiT tagged V2R using a calcium phosphate protocol. Twenty-four hours post-transfection, cells were plated onto clear bottom, white-walled 96-well plates at 50,000-100,000 cells/well in “BRET media”—clear minimum essential medium (GIBCO) supplemented with 2% FBS, 10 mM HEPES, 1×GLUTAMAX™, and 1× Anti-Anti (GIBCO). […] For luminescence split luciferase studies, plates were read with a BioTek SYNERGY™ Neo2 plate reader set at 37° C. with a 485 nm emission filter. […] For split luciferase luminescence experiments, plates were read both before and after ligand treatment to calculate Δnet change in luminescence and subsequently normalized to vehicle treatment. For complex BRET experiments, plates were read on a Berthold Mithras LB940 using pre-warmed media and instrument at 37° C. using a standard Rluc emissions filter (480 nm) with a custom mKO 542 nm long-pass emission filter (Chroma Technology Co., Bellows Falls, Vt.). The BRET ratio was calculated by dividing the mKO signal by the luciferase signal.

[2] = target: T1, Angiotensin II type 1 receptor (AT1R) (Homo sapiens, UniProt P30556); test: TGF-α shedding assay of canonical G protein signaling at AT1R; assay type: cell-based; details: four Gα-family proteins tested
T1 sequence (P30556 1-359): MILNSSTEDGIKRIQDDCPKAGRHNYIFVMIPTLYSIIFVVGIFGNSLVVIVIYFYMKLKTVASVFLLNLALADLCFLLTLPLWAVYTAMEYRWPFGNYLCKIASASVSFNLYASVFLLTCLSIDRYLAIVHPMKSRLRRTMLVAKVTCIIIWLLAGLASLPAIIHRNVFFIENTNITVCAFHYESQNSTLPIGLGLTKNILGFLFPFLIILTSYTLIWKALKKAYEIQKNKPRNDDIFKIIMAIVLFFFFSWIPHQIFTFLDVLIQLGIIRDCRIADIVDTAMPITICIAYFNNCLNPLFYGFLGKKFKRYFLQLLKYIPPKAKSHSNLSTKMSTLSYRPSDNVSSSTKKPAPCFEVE

[3] = test system: HEK 293 cells stably expressing AT1R; test: Wound-healing migration assay, immortalized cells; assay type: cell-based, human; details: PTX pretreatment 200 ng/mL
Procedure: HEK 293T cells stably expressing the AT1R were utilized. Briefly, 70 μl of cell suspension at a concentration of 5×10^5 cells per mL was applied into each well of silicone inserts (Ibidi, Martinsried, Germany) on 24 well plate, and after 24 hrs incubation, the inserts were removed to create a wound field. The cells were incubated additionally for 12 hrs with 1 μM of TRV120023 and visualized with a Zeiss Axio Observer microscope (Carl Zeiss, Thornwood, N.Y.). Wound healing was then analyzed using ImageJ (NIH, Bethesda, Md.) wound healing tool macros.

ERK1/2 phosphorylation = test: Phospho-ERK/total ERK immunoblot in 'triple G' HEK 293 cells overexpressing V2R; assay type: cell-based, human; details: agonist treated
Procedure: Cells were serum starved for at least four hours, stimulated with the indicated ligand, subsequently washed 1× with ice-cold PBS, lysed in ice-cold RIPA buffer containing phosphatase and protease inhibitors (Phos-STOP (Roche), Complete EDTA free (Sigma)) and rotated for forty-five minutes, and cleared of insoluble debris by centrifugation at >12,000×g (4° C., 15 minutes), after which the supernatant was collected. Protein was resolved on SDS-10% polyacrylamide gels, transferred to nitrocellulose membranes, and immunoblotted with the indicated primary antibody overnight (4° C.). Phospho-ERK (Cell Signaling Technology, #9106) and total ERK (Millipore #06-182) were used to assess ERK activation. A1-CT antibody that recognizes both isoforms of β-arrestin was utilized, with protein loading assessed by alpha-tubulin (Sigma #T6074). Galpha i-1 (13533, Santa Cruz Biotechnology), Galpha q/11/14 (365906, Santa Cruz Biotechnology), Galpha 12 (515445, Santa Cruz Biotechnology), Galpha 13 (293424, Santa Cruz Biotechnology), Galpha s/olf (55545, Santa Cruz Biotechnology) antibodies were used to verify ‘Δ3G’ HEK 293 cells.
Horseradish peroxidase-conjugated polyclonal mouse anti-rabbit-IgG or anti-mouse-IgG were used as secondary antibodies. […] For quantification, phospho-protein signal was normalized to total protein signal using Image Lab (Bio-Rad) within the same blot.

[4] = target: T2, V2R:β-arrestin-2 complexes (Homo sapiens, UniProt P30518); test: Split luciferase V2R-LgBiT:β-arrestin-2-smBiT association; assay type: cell-based; details: V2R or β2AR
T2 construct: 3xHA (N); expressed in transfected cells; host or cells: HEK293T
Procedure: as §1

[5] = test system: human pulmonary arterial smooth muscle cells (PASMCs); test: Wound-healing migration assay, primary human cells; assay type: cell-based
Procedure: Human pulmonary arterial smooth muscle cells (PASMCs) were isolated from human lungs from a de-identified health donor (International Institute for the Advancement of Medicine, Edison, N.J.) with Institutional Review Board approval. Human PASMCs were seeded into 24-well plates at a density of 1.5×10^4 cells per well in Human Smooth Muscle Cell Basal Medium supplemented with Human SMC Growth Supplement (Cell Application, Inc.). At 30% confluency, cells were transfected with 50 ng of control or β-arrestin-1 and β-arrestin-2 ON […]™ siRNA pools (Dharmacon, Inc.). When the cells reached 100% confluency, they were serum starved for 4 hours with 2 hrs of PTX (200 ng/mL) treatment. Scratches were made using small pipette tips. Cells were washed using DPBS and stimulated with basal smooth muscle cell medium containing 1 μM Angiotensin-II (Millipore Sigma) or 10 μM TRV120023 (Genscript USA Inc.). The wound closure was monitored using live-cell station Zeiss Axio Observer microscope (Carl Zeiss, Thornwood, N.Y.). The images were captured in real-time at 0 hour and for every hour until 16 hours. The initial edges of the scratch at 0 hour time point were marked and migrated distance 12-16 hrs afterwards was measured using METAMORPH® Premier software (Molecular Devices, San Jose, Calif.) at the Duke Light Microscopy Core Facility (Durham, N.C.).

For `CCOc1ccc2c(c1)C1(CCC(OCCN3CCOCC3)CC1)C(=O)N2S(=O)(=O)c1ccc(C(=O)NC(C)(C)C)cc1OC` (stereo not shown) [SR121463], the “Gαi:β-arrestin complex formation after antagonist pretreatment” value ([1]; HEK 293 cells overexpressing V2R, pretreatment 30 min, 10 uM) was “prevented formation of Gαi:β-arrestin complexes”.

Angiotensin II [AngII] was tested, and the “Canonical G protein signaling at AT1R” value [2] was “canonically signals through both Gαq and Gαi”.

pertussis toxin was tested, and the “Sensitivity of the Gαi:β-arrestin interaction to pertussis toxin” value ([1]; pertussis toxin pretreatment) was “partially sensitive to pertussis toxin”, the “Reduction of TRV120023-mediated migration by pertussis toxin pretreatment” value [3] was ~50% and the “ERK phosphorylation after pertussis toxin pretreatment” value (ERK1/2 phosphorylation) was “abrogated, but did not eliminate, ERK phosphorylation”. The “Effect of pertussis toxin pretreatment on β-arrestin recruitment to receptor” value [4] was “did not affect β-arrestin recruitment to either the V2R or β2AR” and the “Pertussis toxin sensitivity of migration towards TRV120023” value [5] was “pertussis toxin sensitive”.
